Several values for one entry are separate records, joined by “and”; a condition that tells them apart may be missing. Identical values can stand only once.
Legend:
yeast and mold = experiment: Pour-plate culture on Potato-Dextrose Agar (PDA); type: cell-based; settings: test concentrations from 10-50 ppm; 4 hour and 24 hour incubations
Procedure: (§1) All tests were conducted using heavy […] samples provided by a major U.S. corn wet milling facility. To confirm the concept that octanoic acid is selective in killing only yeast but not desirable bacteria, microbiological activity was assessed by examining separate culture plates prepared using two different agars. Plates prepared using Potato-Dextrose Agar (PDA) were used to assess the fate of yeast in the present of octanoic acid, as PDA is known to be specific to the propagation of yeast and mold. Plates prepared using Sabourad-Dextrose Agar (SDA) were used to determine the fate of “desired” bacteria as SDA is specific for both yeast and lactic acid producing bacteria. Several serial dilutions (10^1 to 10^7) of heavy […] samples were prepared for the pour plates at 0 ppm (control), 10 ppm, 25 ppm, and 50 ppm (active) of octanoic acid, then agitated in a 100° F. shaking water bath for 4 hours. Plates were similarly prepared using the same samples after agitation for 24 hours. All plates were incubated at […]. for 4 days before performing measurements. In addition to inspecting the plates for microbial activity, aliquots of each sample (after 4 hours and after 24 hours) were examined under a microscope for visual speciation.

[1] = test system: yeast and lactic acid producing bacteria; experiment: Pour-plate culture on Sabourad-Dextrose Agar (SDA); type: cell-based, lactobacillus; settings: for Plate Showing activity, SDA: serial dilution
Procedure: as §1

[2] = test system: gas-producing microorganisms in corn wet milling heavy steepwater; experiment: Flask Pressure Profile (gas production in heavy steepwater); type: cell-based, yeast; settings: for Manometer readings: 100° F.
Procedure: All tests were conducted using heavy […] samples provided by a major U.S. corn wet milling facility. A Flask Pressure Profile method was developed and used to measure changes in gas production. The sample of heavy […] to an Erlenmeyer flask, then placed into a water bath at 100° F. and agitated slowly (30-40 rpm). The flask was connected to a U-tube manometer filled with distilled water. […] An increase in flask pressure indicated gas-producing microbial activity. Tests using octanoic acid were performed in […] ppm (control), 10 ppm, 25 ppm, and 50 ppm (active).

## CCCCCCCC(=O)O [Octanoic Acid, Octanoic acid]
Yeast and mold
  Effect on yeast: selectively kills the yeast
[1]; 10 ppm, sample incubation time 4 hrs
  Plate Showing activity, SDA: 10^2
[1]; 10 ppm, sample incubation time 24 hrs
  Plate Showing activity, SDA: 10^2
[1]; 25 ppm, sample incubation time 4 hrs
  Plate Showing activity, SDA: 10^1
[1]; 25 ppm, sample incubation time 24 hrs
  Plate Showing activity, SDA: 10^2
[1]; 50 ppm, sample incubation time 4 hrs
  Plate Showing activity, SDA: 10^2
[1]; 50 ppm, sample incubation time 24 hrs
  Plate Showing activity, SDA: 10^2
[1]; test concentrations from 10-50 ppm, 4 hour and 24 hour incubations
  Effect on activity of lactobacillus: do not measurably decrease the activity of lactobacillus
[2]; 10 ppm, t = 0 hours
  Manometer readings: 0.0 in H2O and 0 in H2O
[2]; 10 ppm, t = 1 hours
  Manometer readings: 0.0 in H2O
[2]; 10 ppm, t = 1.5 hours
  Manometer readings: 0.0 in H2O
[2]; 10 ppm, t = 2 hours
  Manometer readings: 0.0 in H2O
[2]; 10 ppm, t = 2.5 hours
  Manometer readings: 0.0 in H2O
[2]; 10 ppm, t = 3 hours
  Manometer readings: 0.0 in H2O
[2]; 10 ppm, t = 3.5 hours
  Manometer readings: 0.0 in H2O
[2]; 10 ppm, t = 4 hours
  Manometer readings: 0.0 in H2O
[2]; 10 ppm, t = 4.5 hours
  Manometer readings: 0.0 in H2O
[2]; 10 ppm, t = 5 hours
  Manometer readings: 0.0 in H2O
[2]; 10 ppm, t = 5.5 hours
  Manometer readings: 0.0 in H2O
[2]; 10 ppm, t = 6 hours
  Manometer readings: 0.0 in H2O
[2]; 10 ppm, t = 6.5 hours
  Manometer readings: 0.0 in H2O
[2]; 25 ppm, t = 0 hours
  Manometer readings: 0.0 in H2O
[2]; 25 ppm, t = 0.5 hours
  Manometer readings: 0.25 in H2O
[2]; 25 ppm, t = 1 hours
  Manometer readings: 0.0 in H2O
[2]; 25 ppm, t = 1.5 hours
  Manometer readings: 0.0 in H2O
[2]; 25 ppm, t = 2 hours
  Manometer readings: 0.0 in H2O
[2]; 25 ppm, t = 2.5 hours
  Manometer readings: 0.0 in H2O
[2]; 25 ppm, t = 3 hours
  Manometer readings: 0.0 in H2O
[2]; 25 ppm, t = 3.5 hours
  Manometer readings: 0.0 in H2O
[2]; 25 ppm, t = 4 hours
  Manometer readings: 0.0 in H2O
[2]; 25 ppm, t = 4.5 hours
  Manometer readings: 0.0 in H2O
[2]; 25 ppm, t = 5 hours
  Manometer readings: 0.0 in H2O
[2]; 25 ppm, t = 5.5 hours
  Manometer readings: 0.0 in H2O
[2]; 25 ppm, t = 6 hours
  Manometer readings: 0.0 in H2O
[2]; 25 ppm, t = 6.5 hours
  Manometer readings: 0.0 in H2O
[2]; 50 ppm, t = 0 hours
  Manometer readings: 0.0 in H2O
[2]; 50 ppm, t = 0.5 hours
  Manometer readings: 0.0 in H2O
[2]; 50 ppm, t = 1 hours
  Manometer readings: 0.0 in H2O
[2]; 50 ppm, t = 1.5 hours
  Manometer readings: 0.0 in H2O
[2]; 50 ppm, t = 2 hours
  Manometer readings: 0.0 in H2O
[2]; 50 ppm, t = 2.5 hours
  Manometer readings: 0.0 in H2O
[2]; 50 ppm, t = 3 hours
  Manometer readings: 0.0 in H2O
[2]; 50 ppm, t = 3.5 hours
  Manometer readings: 0.0 in H2O
[2]; 50 ppm, t = 4 hours
  Manometer readings: 0.0 in H2O
[2]; 50 ppm, t = 4.5 hours
  Manometer readings: 0.0 in H2O
[2]; 50 ppm, t = 5 hours
  Manometer readings: 0.0 in H2O
[2]; 50 ppm, t = 5.5 hours
  Manometer readings: 0.0 in H2O
[2]; 50 ppm, t = 6 hours
  Manometer readings: 0.0 in H2O
[2]; 50 ppm, t = 6.5 hours
  Manometer readings: 0.0 in H2O
[2]; all of the applied dosages (10, 25, 50 ppm), heavy steepwater
  Effect on gas-producing microorganisms: effectively reduces all gas-producing microorganisms

— patent publication US20030138935A1, “Selective deactivation of yeast in corn wet milling process slurries” (priority 2002, published 2003)
